Test results as given in ChEMBL document CHEMBL1201862, “PubChem BioAssay data set” (2004).
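How tested: cells in 96-well plates exposed to compound for 48 hours at five concentrations. Here, GI50 denotes the concentration required for 50% inhibition of growth.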 The source made the active and inactive calls. No stated cut-off is given here; in the data, active = GI50 up to about 1.1 µM and inactive = higher.

Columns and labels:
Experiment in all cases: NCI tumour cell line growth inhibition, 48 h
M14 = test system: M14
COLO 205 = test system: COLO 205
NCI-H522 = test system: NCI-H522
UO-31 = test system: UO-31
NCI-H226 = test system: NCI-H226
NCI-H460 = test system: NCI-H460
A498 = test system: A498
KM12 = test system: KM12
UACC-62 = test system: UACC-62
A549 = test system: A549
CAKI-1 = test system: CAKI-1
SW-620 = test system: SW-620
HOP-62 = test system: HOP-62
SK-OV-3 = test system: SK-OV-3
CCRF-CEM = test system: CCRF-CEM
TK-10 = test system: TK-10
SNB-19 = test system: SNB-19
LOX IMVI = test system: LOX IMVI

Measured: GI50

CC1(CO)OC(n2cc(C(=O)NC(=O)OCc3ccccc3)c(=O)[nH]c2=O)CC1O (stereo not given)
inactive: M14 > 100 µM | COLO 205 > 100 µM | NCI-H522 > 100 µM | UO-31 > 100 µM | NCI-H226 > 100 µM | NCI-H460 > 100 µM | A498 > 100 µM | KM12 > 100 µM | UACC-62 > 100 µM | A549 > 100 µM | CAKI-1 > 100 µM | SW-620 > 100 µM | HOP-62 > 100 µM | SK-OV-3 > 100 µM | CCRF-CEM > 100 µM | TK-10 > 100 µM | SNB-19 > 100 µM | LOX IMVI > 100 µM

COc1cc(C=O)c(-c2c(C=O)ccc3c2OCO3)c(OC)c1OC
inactive: M14 74.1 µM | COLO 205 64.9 µM | NCI-H522 88.5 µM | UO-31 > 100 µM | NCI-H226 > 100 µM | NCI-H460 > 100 µM | A498 > 100 µM | KM12 78.3 µM | UACC-62 62.5 µM | A549 > 100 µM | CAKI-1 31.9 µM | SW-620 38.2 µM | HOP-62 > 100 µM | SK-OV-3 > 100 µM | CCRF-CEM 33.8 µM | TK-10 > 100 µM | SNB-19 49.8 µM | LOX IMVI 54.6 µM

OCC(O)CNc1ccnc2cc(Cl)ccc12 (stereo not given)
inactive: M14 > 100 µM | COLO 205 > 100 µM | NCI-H522 > 100 µM | UO-31 > 100 µM | NCI-H226 > 100 µM | NCI-H460 > 100 µM | A498 > 100 µM | KM12 > 100 µM | UACC-62 > 100 µM | A549 > 100 µM | CAKI-1 > 100 µM | SW-620 > 100 µM | HOP-62 > 100 µM | SK-OV-3 > 100 µM | CCRF-CEM > 100 µM | TK-10 > 100 µM | SNB-19 > 100 µM | LOX IMVI > 100 µM

O=C(O/N=C1/CCC/C1=C\c1ccccc1)c1ccc(Cl)c(Cl)c1
inactive: M14 > 100 µM | COLO 205 > 100 µM | NCI-H522 > 100 µM | UO-31 > 100 µM | NCI-H226 > 100 µM | NCI-H460 > 100 µM | A498 > 100 µM | KM12 > 100 µM | UACC-62 > 100 µM | A549 > 100 µM | CAKI-1 > 100 µM | SW-620 > 100 µM | HOP-62 > 100 µM | SK-OV-3 > 100 µM | CCRF-CEM > 100 µM | TK-10 > 100 µM | LOX IMVI > 100 µM

COc1ccc(/C=C/C(=O)c2sc(-n3nc(-c4ccccc4)cc3-c3ccccc3)nc2C)cc1
inactive: M14 > 10 µM | COLO 205 > 10 µM | NCI-H522 63.1 µM | UO-31 31.6 µM | NCI-H226 > 10 µM | NCI-H460 > 10 µM | A498 > 10 µM | KM12 76.4 µM | UACC-62 > 10 µM | A549 > 10 µM | CAKI-1 55.2 µM | SW-620 > 10 µM | HOP-62 > 10 µM | SK-OV-3 > 10 µM | CCRF-CEM > 10 µM | TK-10 > 10 µM | SNB-19 > 10 µM | LOX IMVI > 10 µM

Cc1cc(Cl)ccc1NC(=O)CC/C(CC(=O)C(C)C)=N\NC(=O)C[n+]1ccccc1
inactive: M14 > 100 µM | COLO 205 > 100 µM | NCI-H522 > 100 µM | UO-31 > 100 µM | NCI-H226 > 100 µM | NCI-H460 > 100 µM | A498 > 100 µM | KM12 > 100 µM | UACC-62 > 100 µM | A549 > 100 µM | CAKI-1 > 100 µM | SW-620 > 100 µM | HOP-62 > 100 µM | SK-OV-3 > 100 µM | CCRF-CEM > 100 µM | TK-10 > 100 µM | SNB-19 > 100 µM | LOX IMVI > 100 µM

COc1cccc(/C=C2\N=C(Cl)OC2=O)c1O
inactive: M14 > 100 µM | COLO 205 > 100 µM | NCI-H522 > 100 µM | UO-31 > 100 µM | NCI-H226 > 100 µM | NCI-H460 > 100 µM | A498 > 100 µM | KM12 > 100 µM | UACC-62 > 100 µM | A549 > 100 µM | CAKI-1 > 100 µM | SW-620 > 66.4 µM | HOP-62 > 100 µM | SK-OV-3 > 38.7 µM | CCRF-CEM > 55.3 µM | TK-10 > 100 µM | SNB-19 > 100 µM | LOX IMVI > 100 µM

O=C(NCc1cccnc1)C1COc2cc(-c3cc(=O)c4ccccc4o3)ccc2O1 (stereo not given)
inactive: M14 5.27 µM | COLO 205 > 100 µM | NCI-H522 10.7 µM | UO-31 > 43.9 µM | NCI-H226 3.62 µM | NCI-H460 51.4 µM | A498 > 61.4 µM | KM12 > 36.1 µM | UACC-62 30.4 µM | A549 5.79 µM | CAKI-1 > 63.7 µM | SW-620 > 100 µM | HOP-62 10.1 µM | SK-OV-3 > 100 µM | CCRF-CEM > 100 µM | TK-10 > 57.9 µM | SNB-19 19.8 µM | LOX IMVI 3.38 µM

O=c1oc2ccccc2c(O)c1C(C/C(CCN1CCCC1)=N\Nc1ccccc1)c1ccccc1 (stereo not given)
inactive: M14 93.1 µM | NCI-H522 51.2 µM | UO-31 53.5 µM | NCI-H226 71.9 µM | NCI-H460 70.8 µM | A498 > 100 µM | KM12 60.5 µM | UACC-62 76 µM | A549 > 100 µM | CAKI-1 > 100 µM | SW-620 44.6 µM | HOP-62 94.2 µM | SK-OV-3 94.4 µM | CCRF-CEM 27.9 µM | TK-10 > 100 µM | SNB-19 69.5 µM | LOX IMVI 55.6 µM

CC(C)(C)C1CC[C@H]2c3c([nH]c4ccccc34)[C@H]3C(=O)N(c4ccc(F)cc4)C(=O)[C@H]3[C@H]2C1 (stereo not given in full)
inactive: M14 18.5 µM | COLO 205 14.5 µM | NCI-H522 12.4 µM | UO-31 15.8 µM | NCI-H226 19.1 µM | NCI-H460 13.6 µM | A498 29.9 µM | KM12 14.1 µM | UACC-62 15.5 µM | A549 12 µM | CAKI-1 17.9 µM | SW-620 17 µM | HOP-62 16.5 µM | SK-OV-3 17.8 µM | CCRF-CEM 16.7 µM | TK-10 16.3 µM | SNB-19 15.9 µM | LOX IMVI 20.3 µM

Nc1nc(N)c(-c2ccccc2)c(C(=O)Nc2ccccc2)n1
inactive: M14 > 100 µM | COLO 205 > 100 µM | NCI-H522 > 100 µM | UO-31 > 100 µM | NCI-H226 > 100 µM | NCI-H460 > 100 µM | A498 > 100 µM | KM12 > 100 µM | UACC-62 > 100 µM | A549 > 100 µM | CAKI-1 > 100 µM | SW-620 > 100 µM | SK-OV-3 > 100 µM | CCRF-CEM > 100 µM | TK-10 > 100 µM | SNB-19 > 100 µM | LOX IMVI > 100 µM
